Assay: Irritation of the eyes by surfactants used in eye-drops
Description: In an attempt to solve these problems, studies have been conducted with various surfactants which are currently used for formulating medical substances with low solubility in water, especially the most commonly used surfactants polysorbate 80 and polyoxyethylene hydrogenated castor oil.

In the case of Polyoxyethylene hydrogenated castor oil, the “irritation of the eyes” value is reported as “strongly irritate the eyes”.
